Consider 9 compounds from ChEMBL document CHEMBL6127117, “Divergent Total Synthesis of Isoflavone Natural Products and Their Potential as Therapeutic Agents for TTR Amyloidosis” (J Nat Prod, 2024).

Active and inactive are the calls of the source. The calls are words filed in the database; no cut-off is given here.

Assay [1] concerns Transthyretin (Homo sapiens), P02766 [V50M]. The experiment in a line: Inhibition of acid mediated TTR V30M mutant (unknown origin) aggregation under pH 4.7 at 20 uM measured upto 6 days by thioflavin-T fluorescence assay. The note with it: time <= 6.0 day.
Assay [2] deals with Transthyretin (Homo sapiens) (UniProt P02766). Kind of assay: Binding affinity to TTR in human plasma assessed as stabilization of TTR tetramer by measuring fluorescence intensity measured after 6 hrs by absorbance based analysis. It is filed as cell-free. Particulars: dose 20-100 µM.
The target is the same in assay [3]. The experiment in a line: Binding affinity to TTR in human plasma assessed as stabilization of TTR tetramer by measuring fluorescence intensity at 100 uM measured after 6 hrs by absorbance based analysis relative to control. The assay is classed as cell-free.
For assay [4] the target is unchanged. Kind of assay: Binding affinity to TTR in human plasma assessed as stabilization of TTR tetramer by measuring fluorescence intensity at 50 uM measured after 6 hrs by absorbance based analysis relative to control. The assay is classed as cell-free.
The target is the same in assay [5]. Kind of assay: Binding affinity to TTR in human plasma assessed as stabilization of TTR tetramer by measuring fluorescence intensity at 20 uM measured after 6 hrs by absorbance based analysis relative to control. It is filed as cell-free.

Take `CC1(C)C=Cc2c(cc3occ(-c4ccc(O)cc4)c(=O)c3c2O)O1`: in assay [1], the inhibition result is “Active”. Further, in assay [2], the Activity entry was “Dose-Dependent Effect”.
For the compound `CC(C)=CCc1c2c(c3occ(-c4ccc(O)cc4O)c(=O)c3c1O)C=CC(C)(C)O2`, the inhibition result in assay [1] is “Active”. For the same compound, the Activity result was “Dose-Dependent Effect” in assay [2], 35% in assay [3], 50% in assay [4] and 70% in assay [5].
For the compound `C=CC(C)(C)c1cc(-c2coc3cc4c(c(O)c3c2=O)C=CC(C)(C)O4)ccc1O`, the inhibition result in assay [1] is “inactive”. Moreover, in assay [2], the Activity result is “Dose-Dependent Effect”.
On the same counts, the results for `CC(C)=CCOc1ccc(-c2coc3c4c(cc(O)c3c2=O)OC(C)(C)C=C4)cc1` are “inactive” and “Dose-Dependent Effect”.
On to `CC(C)=CCc1cc(-c2coc3cc4c(c(O)c3c2=O)C=CC(C)(C)O4)ccc1O`, for which the inhibition result in assay [1] is “inactive”. In assay [2], the Activity result is “Dose-Dependent Effect”.
On to `CC(C)=CCOc1ccc(-c2coc3cc4c(c(O)c3c2=O)C=CC(C)(C)O4)cc1`, for which the inhibition result in assay [1] was “inactive”. The Activity entry in assay [2] was “Dose-Dependent Effect”.
Take `CC1(C)C=Cc2c(cc(O)c3c(=O)c(-c4ccc(O)cc4)coc23)O1`: the inhibition result in assay [1] was “Active”. Further, in assay [2], the Activity entry is “Dose-Dependent Effect”.
With `CC(C)=CCc1cc(-c2coc3c4c(cc(O)c3c2=O)OC(C)(C)C=C4)ccc1O`, the inhibition result in assay [1] is “inactive”. Also, in assay [2], the Activity result was “Dose-Dependent Effect”.
Taken in the same sequence, the figures for `CC(C)=CCc1c2c(c(O)c3c(=O)c(-c4ccc(O)c(O)c4)coc13)C=CC(C)(C)O2` were “Active” and “Dose-Dependent Effect”.
